# ChEMBL document CHEMBL3779797, “Isoindole-1,3-dione derivatives as RSK2 inhibitors: synthesis, molecular docking simulation and SAR analysis” (Medchemcomm, 2016)
# Target: Ribosomal protein S6 kinase alpha-2 (Homo sapiens) (UniProt Q15349)
# Experiment: Inhibition of N-terminal His6 tagged full-length human recombinant active RSK2 at 10 uM using S6 peptide after 20 mins by fluorescence assay
# Chain of Ribosomal protein S6 kinase alpha-2 (Homo sapiens) (Q15349 whole entry): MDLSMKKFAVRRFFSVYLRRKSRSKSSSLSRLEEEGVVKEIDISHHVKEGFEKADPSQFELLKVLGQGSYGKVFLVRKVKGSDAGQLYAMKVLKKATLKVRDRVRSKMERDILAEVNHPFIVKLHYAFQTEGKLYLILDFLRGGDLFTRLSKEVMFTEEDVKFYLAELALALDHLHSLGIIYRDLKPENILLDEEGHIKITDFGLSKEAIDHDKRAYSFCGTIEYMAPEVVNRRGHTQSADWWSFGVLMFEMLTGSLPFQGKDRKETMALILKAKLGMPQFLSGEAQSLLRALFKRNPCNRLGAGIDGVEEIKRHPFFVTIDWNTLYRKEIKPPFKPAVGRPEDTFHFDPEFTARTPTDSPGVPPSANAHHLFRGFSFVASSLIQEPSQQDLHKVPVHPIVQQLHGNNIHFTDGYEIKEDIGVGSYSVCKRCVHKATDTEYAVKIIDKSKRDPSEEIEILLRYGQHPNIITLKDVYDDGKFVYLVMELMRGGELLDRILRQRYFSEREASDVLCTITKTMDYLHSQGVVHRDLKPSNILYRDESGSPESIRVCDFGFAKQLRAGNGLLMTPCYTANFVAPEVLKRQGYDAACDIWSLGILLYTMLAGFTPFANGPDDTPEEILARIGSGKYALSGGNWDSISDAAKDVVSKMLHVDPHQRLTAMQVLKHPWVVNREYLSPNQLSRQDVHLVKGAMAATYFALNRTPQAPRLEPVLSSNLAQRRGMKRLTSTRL
row,inhibition,SMILES
1,54%,Cc1ccc(NCN2C(=O)c3ccccc3C2=O)cc1
2,56.7%,O=C1c2ccccc2C(=O)N1CNc1ccc(F)cc1
3,63%,CCc1ccc(NCN2C(=O)c3ccccc3C2=O)cc1
4,28.1%,O=C1c2ccccc2C(=O)N1CNc1ccc(OC(F)(F)F)cc1
5,100%,CCOc1ccc(NCN2C(=O)c3ccccc3C2=O)cc1
6,43.6%,O=C1c2ccccc2C(=O)N1CNc1ccccc1
7,8.52%,O=C1c2ccccc2C(=O)N1CNc1ccc(Cl)cc1
8,101%,O=C1c2ccccc2C(=O)N1CNc1ccc(O)cc1
9,46.5%,CC(C)c1ccc(NCN2C(=O)c3ccccc3C2=O)cc1
10,97.2%,COc1ccc(NCN2C(=O)c3ccccc3C2=O)cc1

# Further lines, the compound ahead of its results:
row,SMILES,inhibition
1,COc1ccc(NCN2C(=O)c3ccc(N)cc3C2=O)cc1,109%
2,O=C(Nc1ccc2c(c1)C(=O)N(CNc1ccc(N3CCOCC3)cc1)C2=O)c1ccccc1,103%
3,COc1ccc(NCN2C(=O)c3ccc(NC(=O)c4ccccc4)cc3C2=O)cc1,82%
4,COc1ccc(NCN2C(=O)c3cccc(N)c3C2=O)cc1,95.6%
5,COc1ccc(NCN2C(=O)c3ccc(NC(=O)Nc4ccccc4)cc3C2=O)cc1,34.8%
6,CCOc1ccc(NCN2C(=O)c3ccc([N+](=O)[O-])cc3C2=O)cc1,87%
7,COc1ccc(NCN2C(=O)c3cccc(NC(=O)c4ccccc4)c3C2=O)cc1,99.5%
8,COc1ccc(N(CN2C(=O)c3ccccc3C2=O)C(C)=O)cc1,17.2%
9,Cc1ccc(NCN2C(=O)c3ccc([N+](=O)[O-])cc3C2=O)cc1,35.7%
10,Cn1cc(C2=C(c3cn(CCCSC(=N)N)c4ccccc34)C(=O)NC2=O)c2ccccc21 [BISINDOLYLMALEIMIDE IX],98.2%
11,CCN(CC)c1ccc(NCN2C(=O)c3ccccc3C2=O)c(C)c1,81%
12,COc1ccc(N(C)CN2C(=O)c3ccccc3C2=O)cc1,87%
13,CCOc1ccc(NCN2C(=O)c3cccc(NC(=O)c4ccccc4)c3C2=O)cc1,105%
14,CCOc1ccc(NCN2C(=O)c3ccc(NC(=O)c4ccccc4)cc3C2=O)cc1,69.5%
15,O=C1c2ccccc2C(=O)N1CNc1ccc(N2CCOCC2)cc1,101%

# Tested on: not listed separately
# Experiment: Inhibition of RSK2 in rabbit skeletal muscle using KKRNRTLSVA as substrate after 10 mins in presence of [gamma32P]ATP
# Set-up: species or system Oryctolagus cuniculus
row,IC50,SMILES
1,3 nM,Cn1cc(C2=C(c3cn(CCCSC(=N)N)c4ccccc34)C(=O)NC2=O)c2ccccc21 [BISINDOLYLMALEIMIDE IX]
2,50 nM,CN(C)CCCn1cc(C2=C(c3c[nH]c4ccccc34)C(=O)NC2=O)c2ccccc21 [GF-109203]
